Entries after “also recorded” stand apart in the source; their conditions may differ.
Key:
Assay type in all cases: cell-based, ovine
TRPV4 = experiment: Cytosolic Ca2+ concentration ([Ca2+]cyt), fura-2/AM loaded PAEC; details: 4αPDD 10 μM
Experimental: (§1) Primary cultures of ovine pulmonary arterial endothelial cells (PAEC) were isolated as described previously (L. K. Kelly, Am J Physiol Lung Cell Mol Physiol, 286(5), L984-91 (2004)). Briefly, cells were maintained in Dulbecco's modified Eagle medium (DMEM) supplemented with 10% fetal calf serum (Hyclone, Logan, UT), antibiotics/antimycotic (500 IU Penicillin, 500 μg/ml Streptomycin, 1.25 μg/ml Amphotericin B; MediaTech, Herndon, VA) at 37° C. in a humidified atmosphere with 5% CO2 and 95% air. Cells were used for experiments between passages 9-14, seeded at ˜50% confluence, and utilized when fully confluent.
PAEC were grown at 50-60% confluence on 25-mm-diameter circular glass coverslips. […] The fluorescence emission (at 520 nm) was captured with an EM-CC camera (Evolve; Photometric, Tucson, AZ) and analyzed using NIS Elements 3.2 software (Nikon). [Ca^2+]cyt is expressed as 340/380 fluorescence ratio within an area of interest in the peripheral area of a cell recorded every 2 s. […] [Ca^2+]cyt was calculated using the following equation: [Ca^2+]cyt=Kd×(Sf2/Sf1)×(R−Rmin)/(Rmax−R). Kd (225 nM) is the dissociation constant of the Ca2+-fura-2 complex; and Sf2 and Sf1 and Rmin and Rmax were calculated using a standard protocol (G. Grynkiewicz, J Biol Chem, 260(6), 3440-50 (1985)). […]

PKC = PKC activity, dot-blot of PKC-phosphorylated proteins; details: PAEC; 4αPDD 10 μM, 2, 4 and 6 hours
Experimental: as §1
Activation of PKC in control and 4αPDD-treated EC was evaluated using dot-blot method and antibodies specific to PKC-phosphorylated proteins. The cell lysates were transferred on nitrocellulose membrane using Bio-Dot Microfiltration apparatus (Bio-Rad) according to Instruction Manual. To detect and evaluate levels of PKC-phosphorylated proteins, Phospho-(Ser) PKC Substrate rabbit polyclonal antibody (Cell Signaling) was used. After visualization of PKC-phosphorylated proteins, the membrane was stripped and re-probed with β-actin antibody for normalization.

PAEC = experiment: Cellular peroxynitrite levels (DHR 123 oxidation) in PAEC; details: 4αPDD
Experimental: as §1
The level of cell peroxynitrite was determined by the oxidation of dihydrorhodamine (DHR) 123 (EMD Millipore, Billerica, MA) to rhodamine 123, as previously described (S. Aggarwal, J Cell Physiol, 226(12), 3104-13 (2011)). Briefly, cultured PAEC were treated with or without TGF-β1 (5 ng/ml, 8 h) or GW9662 (5 μM, 24 h). The cells were collected and the cell pellet was then treated with PEG-Catalase (100 U, 30 min) to reduce H2O2 dependent DHR 123 oxidation. DHR 123 (5 μM, 30 min) was added to the cell pellet in phenol red-free media and the fluorescence of rhodamine 123 measured using a Fluoroskan Ascent Microplate Fluorometer with excitation at 485 nm and emission at 545 nm. Fluorescent values were normalized to the protein levels in each sample.

With `CCCCCCCCCC(=O)O[C@@H]1[C@@H](C)[C@@]2(O)[C@@H](C=C(CO)C[C@@]3(O)C(=O)C(C)=C[C@@H]23)[C@@H]2C(C)(C)[C@]12OC(=O)CCCCCCCCC` [4αPDD, 4α-Phorbol-12,13 didecanoate] the “cytosolic free Ca2+ concentration ([Ca2+]cyt)” value (TRPV4) was “transient increase of [Ca^2+]cyt; also recorded: induced a transient increase”, the PKC activity (PKC) was “increases PKC activity” and the cellular peroxynitrite levels (PAEC) was “increases”.
